Experimental data published in patent US8163793B2, “Proline derivatives” (Hoffman-La Roche Inc., priority 2009, dated 2012).
Where a name gives a salt, the structure may show the parent alone.

What was measured:
[1] = target: Cat L (UniProt P07711); assay: Cathepsin enzyme inhibition assay (fluorogenic peptide substrate Z-Val-Val-Arg-AMC), Cathepsin L; format: biochemical, human and mouse; conditions: enzyme 1 nM, substrate 20 μM, pH 6.5; read-out: CatL IC50
Outline: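 Fluorogenic cleavage of Z-Val-Val-Arg-AMC (20 μM) by 1 nM Cat L was monitored at ex 360/em 465 nm for 20 min, the linear phase. The buffer was 100 mM potassium phosphate pH 6.5 with 5 mM EDTA and DTT. IC50 values were derived by standard methods, in μM.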

[2] = target: Cathepsin S (UniProt P25774); assay: Cathepsin enzyme inhibition assay (fluorogenic peptide substrate Z-Val-Val-Arg-AMC), Cathepsin S; format: biochemical, human and mouse; conditions: enzyme 1 nM, substrate 20 μM, pH 6.5; read-out: CatS IC50
Outline: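 Compounds were combined with 1 nM human or mouse enzyme, and substrate then started the reaction. The buffer was potassium phosphate (100 mM, pH 6.5) containing EDTA-Na 5 mM, Triton X-100 0.001% and […] 5 mM.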

IC50 [1] [µM]	IC50 [2] [nM]	Compound
7.2	0.435	N#CC1(NC(=O)[C@@H]2C[C@@H](S(=O)(=O)c3ccccc3C(F)(F)F)CN2c2cc(C3CCOCC3)nn2C2CCC2)CC1 [Example 397, (2S,4R)-1-[2-Cyclobutyl-5-(tetrahydro-pyran-4-yl)-2H-pyrazol-3-yl]-4-(2-trifluoromethyl-benzenesulfonyl)-pyrrolidine-2-carboxylic acid (1-cyano-cyclopropyl)-amide]
25.2	1.6	CN1CCC(C(=O)N2C[C@H](S(=O)(=O)c3ccccc3C(F)(F)F)C[C@H]2C(=O)NCC#N)CC1 [Example 70, (2S,4R)-1-(1-Methyl-piperidine-4-carbonyl)-4-(2-trifluoromethyl-benzenesulfonyl)-pyrrolidine-2-carboxylic acid cyanomethyl-amide formiate]
≥ 25	4100	CC(C)(C)OC(=O)N1C[C@H](S(=O)(=O)c2ccccc2Cl)C[C@H]1C(=O)NC1(C#N)CCCCC1 [Example 35, (2S,4R)-4-(2-Chloro-benzenesulfonyl)-2-(1-cyano-cyclohexylcarbamoyl)-pyrrolidine-1-carboxylic acid tert-butyl ester]
> 25	0.98	N#CC1(NC(=O)[C@@H]2C[C@@H](S(=O)(=O)c3ccccc3Cl)CN2c2nnc(C(F)(F)F)s2)CC1 [Example 399]
11.3	0.5	CC1(C(=O)N2C[C@H](S(=O)(=O)c3ccccc3Cl)C[C@H]2C(=O)NC2(C#N)CC2)CC1 [Example 214, (2S,4R)-4-(2-Chloro-benzenesulfonyl)-1-(1-methyl-cyclopropanecarbonyl)-pyrrolidine-2-carboxylic acid (1-cyano-cyclopropyl)-amide]
≥ 25	0.7	CC(=O)N1C[C@H](S(=O)(=O)c2ccc(-n3cccn3)cc2C(F)(F)F)C[C@H]1C(=O)NC1(C#N)CC1 [Example 111, (2S,4R)-1-Acetyl-4-(4-pyrazol-1-yl-2-trifluoromethyl-benzenesulfonyl)-pyrrolidine-2-carboxylic acid (1-cyano-cyclopropyl)-amide]
18.6	1.2	CC1(C(=O)N2C[C@H](S(=O)(=O)c3ccc(Cl)cc3Cl)C[C@H]2C(=O)NC2(C#N)CC2)CC1 [Example 222, (2S,4R)-4-(2,4-Dichloro-benzenesulfonyl)-1-(1-methyl-cyclopropanecarbonyl)-pyrrolidine-2-carboxylic acid (1-cyano-cyclopropyl)-amide]
1.43	4.75	CC(C)(C)OC(=O)NC1(C(=O)N2C[C@H](S(=O)(=O)c3ccc(OCC(F)(F)F)cc3Cl)C[C@H]2C(=O)NC2(C#N)CC2)CC1 [Example 242, {1-[(2S,4R)-4-[2-Chloro-4-(2,2,2-trifluoro-ethoxy)-benzenesulfonyl]-2-(1-cyano-cyclopropylcarbamoyl)-pyrrolidine-1-carbonyl]-cyclopropyl}-carbamic Acid Tert-butyl ester]
33.9	0.9	CC(=O)N1C[C@H](S(=O)(=O)c2ccc(-n3cccn3)cc2Cl)C[C@H]1C(=O)NC1(C#N)CC1 [Example 131, (2S,4R)-1-Acetyl-4-(2-chloro-4-pyrazol-1-yl-benzenesulfonyl)-pyrrolidine-2-carboxylic acid (1-cyano-cyclopropyl)-amide formiate]
7.84	0.353	CC1(C(=O)N2C[C@H](S(=O)(=O)c3ccc(OCC(F)(F)F)cc3Cl)C[C@H]2C(=O)NC2(C#N)CC2)COC1 [Example 294, (2S,4R)-4-[2-Chloro-4-(2,2,2-trifluoro-ethoxy)-benzenesulfonyl]-1-(3-methyl-oxetane-3-carbonyl)-pyrrolidine-2-carboxylic acid (1-cyano-cyclopropyl)-amide]
23.7	4.1	CC(C)(C)OC(=O)N1C[C@H](S(=O)(=O)c2ccc(N3CCCCC3)cc2Cl)C[C@H]1C(=O)NC1(C#N)CC1 [Example 121, (2S,4R)-4-(2-Chloro-4-piperidin-1-yl-benzenesulfonyl)-2-(1-cyano-cyclopropylcarbamoyl)-pyrrolidine-1-carboxylic acid tert.-butyl ester]
1.25	0.29	N#CC1(NC(=O)[C@@H]2C[C@@H](S(=O)(=O)c3ccc(OCC(F)(F)F)cc3Cl)CN2C(=O)C(F)(F)c2ccccc2)CC1 [Example 251, (2S,4R)-4-[2-Chloro-4-(2,2,2-trifluoro-ethoxy)-benzenesulfonyl]-1-(2,2-difluoro-2-phenyl-acetyl)-pyrrolidine-2-carboxylic acid (1-cyano-cyclopropyl)-amide]
≥ 25	6	COc1ccc(N2C[C@H](S(=O)(=O)c3ccccc3C(F)(F)F)C[C@H]2C(=O)NC2(C#N)CC2)cc1 [Example 160, (2S,4R)-1-(4-Methoxy-phenyl)-4-(2-trifluoromethyl-benzenesulfonyl)-pyrrolidine-2-carboxylic Acid (1-cyano-cyclopropyl)-amide]
≥ 25	1.4	CS(=O)(=O)c1cccc(N2C[C@H](S(=O)(=O)c3ccccc3C(F)(F)F)C[C@H]2C(=O)NC2(C#N)CC2)c1 [Example 402, (2S,4R)-1-(3-Methanesulfonyl-phenyl)-4-(2-trifluoromethyl-benzenesulfonyl)-pyrrolidine-2-carboxylic acid (1-cyano-cyclopropyl)-amide]
39.9	0.8	N#CC1(NC(=O)[C@@H]2C[C@@H](S(=O)(=O)c3ccc(N4CCOCC4)cc3C(F)(F)F)CN2)CC1 [Example 29, (2S,4R)-4-(4-Morpholin-4-yl-2-trifluoromethyl-benzenesulfonyl)-pyrrolidine-2-carboxylic acid (1-cyano-cyclopropyl)-amide hydrochloride]
42.2	18	N#CC1(NC(=O)[C@@H]2C[C@@H](S(=O)(=O)c3ccccc3CO)CN2)CC1 [Example 12, (2S,4R)-4-(2-Hydroxymethyl-benzenesulfonyl)-pyrrolidine-2-carboxylic acid (1-cyano-cyclopropyl)-amide Hydrochloride]
1.05	0.67	Cc1cc(N2C[C@H](S(=O)(=O)c3ccccc3Cl)C[C@H]2C(=O)NC2(C#N)CC2)n(CCc2ccccc2)n1 [Example 359, (2S,4R)-4-(2-Chloro-benzenesulfonyl)-1-(5-methyl-2-phenethyl-2H-pyrazol-3-yl)-pyrrolidine-2-carboxylic acid (1-cyano-cyclopropyl)-amide]
2.05	1.35	N#CC1(NC(=O)[C@@H]2C[C@@H](S(=O)(=O)c3ccc(OCC(F)(F)F)cc3Cl)CN2C(=O)C[C@H]2CC[C@H](N)CC2)CC1 [Example 265, (2S,4R)-1-[2-(4-Amino-cyclohexyl)-acetyl]-4-[2-chloro-4-(2,2,2-trifluoro-ethoxy)-benzenesulfonyl]-pyrrolidine-2-carboxylic acid (1-cyano-cyclopropyl)-amide]
≥ 25	7.7	N#CC1(NC(=O)[C@@H]2C[C@@H](S(=O)(=O)c3ccccc3C(F)(F)F)CN2C=O)CC1 [Example 100, (2S,4R)-1-Formyl-4-(2-trifluoromethyl-benzenesulfonyl)-pyrrolidine-2-carboxylic acid (1-cyano-cyclopropyl)-amide]
≥ 25	5	N#CC1(NC(=O)[C@@H]2C[C@@H](S(=O)(=O)c3ccc(-n4ccncc4=O)cc3C(F)(F)F)CN2)CC1 [Example 32, (2S,4R)-4-[4-(2-Oxo-2H-pyrazin-1-yl)-2-trifluoromethyl-benzenesulfonyl]-pyrrolidine-2-carboxylic acid (1-cyano-cyclopropyl)-amide hydrochloride]
52.1	0.205	Cc1cc(N2C[C@H](S(=O)(=O)c3ccccc3C(F)(F)F)C[C@H]2C(=O)NC2(C#N)CC2)n(C2CCOCC2)n1 [Example 307, (2S,4R)-1-[5-Methyl-2-(tetrahydro-pyran-4-yl)-2H-pyrazol-3-yl]-4-(2-trifluoromethyl-benzenesulfonyl)-pyrrolidine-2-carboxylic acid (1-cyano-cyclopropyl)-amide]
23.9	14.7	C[C@H](Oc1ccc(S(=O)(=O)[C@@H]2C[C@@H](C(=O)NC3(C#N)CC3)N(C(=O)OC(C)(C)C)C2)c(Cl)c1)C(F)(F)F [Example 229, (2S,4R)-4-[2-Chloro-4-((S)-2,2,2-trifluoro-1-methyl-ethoxy)-benzenesulfonyl]-2-(1-cyano-cyclopropylcarbamoyl)-pyrrolidine-1-carboxylic acid tert-butyl ester]
24.5	5.9	CCN1CCN(c2ccc(S(=O)(=O)[C@H]3CN[C@H](C(=O)NC4(C#N)CC4)C3)c(Cl)c2)CC1 [Example 140, (2S,4R)-4-[2-Chloro-4-(4-ethyl-piperazin-1-yl)-benzenesulfonyl]-pyrrolidine-2-carboxylic acid (1-cyano-cyclopropyl)-amide formiate]
≥ 25	31.2	CC(C)(C)OC(=O)N1C[C@H](S(=O)(=O)c2cccc(Cl)c2Cl)C[C@H]1C(=O)NC1(C#N)CC1 [Example 41, (2S,4R)-2-(1-Cyano-cyclopropylcarbamoyl)-4-(2,3-dichloro-benzenesulfonyl)-pyrrolidine-1-carboxylic acid tert-butyl ester]
16.7	6.4	N#CC1(NC(=O)[C@@H]2C[C@@H](S(=O)(=O)c3ccc(Cl)cc3Cl)CN2c2ncccc2C(F)(F)F)CC1 [Example 188, (2S,4R)-4-(2,4-Dichloro-benzenesulfonyl)-1-(3-trifluoromethyl-pyridin-2-yl)-pyrrolidine-2-carboxylic acid (1-cyano-cyclopropyl)-amide]
